Test results from PubChem BioAssay AID330 (DTP/NCI, 2004).
Several values for one entry are separate records, joined by “and”; a condition that tells them apart may be missing. Equal entries are not always repeated. Toxic doses and inconclusive results are not listed.

Tested on: P388 leukemia ip, CD2F1 mice, survival T/C
Assay: NCI In Vivo Anticancer Drug Screen. Data for tumor model P388 Leukemia (intraperitoneal) in CD2F1 (CDF1) mice
Conditions: endpoint: median survival time, higher = longer survival
Procedure, shortened: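 Mice carrying the transplanted tumor received test compound or vehicle. Survival was recorded in each group, and the value is the treated-group measurement divided by that of the vehicle-treated control group.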

[1] = dose: 50.0 mg/kg/injection, schedule: Q01DX009 (ip), vehicle: saline with Tween-80
[2] = dose: 100.0 mg/kg/injection, schedule: Q01DX009 (ip), vehicle: saline with Tween-80
[3] = dose: 100.0 mg/kg/injection, schedule: Q04DX003 (ip), vehicle: saline with Tween-80
[4] = dose: 200.0 mg/kg/injection, schedule: Q01DX009 (ip), vehicle: saline with Tween-80
[5] = dose: 200.0 mg/kg/injection, schedule: Q04DX003 (ip), vehicle: saline with Tween-80
[6] = dose: 50.0 mg/kg/injection, schedule: Q01DX009 (ip), vehicle: saline
[7] = dose: 50.0 mg/kg/injection, schedule: Q01DX005 (ip), vehicle: Klucel (hydroxypropylcellulose) (HPC)
[8] = dose: 50.0 mg/kg/injection, schedule: Q01DX009 (ip), vehicle: Klucel (hydroxypropylcellulose) (HPC)
[9] = dose: 100.0 mg/kg/injection, schedule: Q01DX009 (ip), vehicle: Klucel (hydroxypropylcellulose) (HPC)
[10] = dose: 200.0 mg/kg/injection, schedule: Q01DX009 (ip), vehicle: Klucel (hydroxypropylcellulose) (HPC)
[11] = dose: 50.0 mg/kg/injection, schedule: Q01DX005 (ip), vehicle: saline with Tween-80
[12] = dose: 100.0 mg/kg/injection, schedule: Q01DX005 (ip), vehicle: Klucel (hydroxypropylcellulose) (HPC)
[13] = dose: 200.0 mg/kg/injection, schedule: Q01DX005 (ip), vehicle: Klucel (hydroxypropylcellulose) (HPC)

Question: Which T/C [1] does the source give for `Nc1ccc(C(=O)O)c(C(=O)O)c1` here?
Answer: 100 % of control

Question: And the T/C (dose: 50.0 mg/kg/injection, schedule: Q04DX003 (ip), vehicle: saline with Tween-80)?
Answer: 91 % of control

Question: What about the T/C [2] of the same molecule?
Answer: 104 % of control

Question: What about the T/C [3] of the same molecule?
Answer: 91 % of control

Question: And the T/C [4]?
Answer: 100 % of control

Question: What about the T/C [5] of the same molecule?
Answer: 91 % of control

Question: Which results are given for `CC(C)COC(=O)NCCCl`?
Answer: T/C [1]: 100 % of control; T/C [2]: 97 % of control; T/C [4]: 97 % of control

Question: With `COc1ccc(OCC2CN(C)CCC2c2ccccc2)cc1` (stereo not drawn) as the molecule, how does the T/C (dose: 12.5 mg/kg/injection, schedule: Q01DX009 (ip), vehicle: saline) read?
Answer: 99 % of control

Question: And the T/C (dose: 25.0 mg/kg/injection, schedule: Q01DX009 (ip), vehicle: saline)?
Answer: 100 % of control

Question: And the T/C [6]?
Answer: 101 % of control and 94 % of control

Question: How did the T/C (dose: 6.25 mg/kg/injection, schedule: Q01DX009 (ip), vehicle: Klucel (hydroxypropylcellulose) (HPC)) turn out when `Cc1[nH]c(C)c(Cl)c(=O)c1Cl` was run?
Answer: 98 % of control

Question: What about the T/C (dose: 12.5 mg/kg/injection, schedule: Q01DX009 (ip), vehicle: Klucel (hydroxypropylcellulose) (HPC)) of the same molecule?
Answer: 100 % of control

Question: And the T/C (dose: 25.0 mg/kg/injection, schedule: Q01DX009 (ip), vehicle: Klucel (hydroxypropylcellulose) (HPC))?
Answer: 115 % of control

Question: With `Cc1cccc(C)c1NC(=O)C(Cl)(Cl)Sc1ccc(Cl)cc1Cl` as the molecule, how does the T/C [1] read?
Answer: 100 % of control

Question: And the T/C [2]?
Answer: 104 % of control

Question: What about the T/C [4] of the same molecule?
Answer: 109 % of control

Question: With `COc1ccc(CCN)c(OC)c1OC` as the molecule, how does the T/C [6] read?
Answer: 105 % of control and 107 % of control

Question: And the T/C (dose: 100.0 mg/kg/injection, schedule: Q01DX009 (ip), vehicle: saline)?
Answer: 104 % of control and 110 % of control

Question: How did the T/C (dose: 12.5 mg/kg/injection, schedule: Q01DX005 (ip), vehicle: Klucel (hydroxypropylcellulose) (HPC)) turn out when `Cc1cn(CCCOc2c3occc3cc3ccc(=O)oc23)c(=O)[nH]c1=O` was run?
Answer: 86 % of control

Question: And the T/C (dose: 25.0 mg/kg/injection, schedule: Q01DX005 (ip), vehicle: Klucel (hydroxypropylcellulose) (HPC))?
Answer: 96 % of control

Question: What about the T/C [7] of the same molecule?
Answer: 88 % of control

Question: `Cc1nc([N+](=O)[O-])cn1-c1nc2ccccn2c1[N+](=O)[O-]` was tested. Which T/C [8] did it give?
Answer: 92 % of control

Question: And the T/C [9]?
Answer: 94 % of control

Question: What about the T/C [10] of the same molecule?
Answer: 91 % of control

Question: `COC(=O)c1ccccc1N=NNc1ccccc1C(N)=O` was tested. Which T/C [3] did it give?
Answer: 90 % of control

Question: What about the T/C [5] of the same molecule?
Answer: 97 % of control

Question: And the T/C (dose: 400.0 mg/kg/injection, schedule: Q04DX003 (ip), vehicle: saline with Tween-80)?
Answer: 99 % of control

Question: Which results are given for `Cc1ccc(S(=O)(=O)Sc2nnnn2C)cc1`?
Answer: T/C [8]: 106 % of control; T/C [9]: 97 % of control

Question: With `Cc1ccccc1-n1c(=S)n(-c2ccc(Cl)cc2)c2nc3ccccc3nc1/c2=N/Nc1ccccc1` as the molecule, how does the T/C (dose: 12.5 mg/kg/injection, schedule: Q01DX005 (ip), vehicle: saline with Tween-80) read?
Answer: 95 % of control

Question: And the T/C (dose: 25.0 mg/kg/injection, schedule: Q01DX005 (ip), vehicle: saline with Tween-80)?
Answer: 96 % of control

Question: And the T/C [11]?
Answer: 94 % of control

Question: How did the T/C [11] turn out when `NCCNc1ncnc2ccc(Cl)cc12` was run?
Answer: 97 % of control

Question: What about the T/C (dose: 100.0 mg/kg/injection, schedule: Q01DX005 (ip), vehicle: saline with Tween-80) of the same molecule?
Answer: 93 % of control

Question: And the T/C (dose: 200.0 mg/kg/injection, schedule: Q01DX005 (ip), vehicle: saline with Tween-80)?
Answer: 92 % of control

Question: Which T/C (dose: 60.0 mg/kg/injection, schedule: Q01DX005 (ip), vehicle: saline with Tween-80) does the source give for `O=C1CCCCCCCC(=O)Nc2ccc3nc4ccccc4c(c3c2)SCCCCCCCCCSc2c3ccccc3nc3ccc(cc23)N1` here?
Answer: 88 % of control

Question: And the T/C (dose: 120.0 mg/kg/injection, schedule: Q01DX005 (ip), vehicle: saline with Tween-80)?
Answer: 99 % of control

Question: What about the T/C (dose: 240.0 mg/kg/injection, schedule: Q01DX005 (ip), vehicle: saline with Tween-80) of the same molecule?
Answer: 96 % of control

Question: How did the T/C (dose: 0.39 mg/kg/injection, schedule: Q01DX009 (ip), vehicle: water) turn out when `COc1cccc2c1C(=O)c1c(O)c3c(c(O)c1C2=O)CC(O)(C(C)=O)CC3OC1CC(N)C(OC2CC(N)C(O)C(C)O2)C(C)O1` (stereo not drawn) was run?
Answer: 116 % of control

Question: What about the T/C (dose: 1.56 mg/kg/injection, schedule: Q01DX009 (ip), vehicle: water) of the same molecule?
Answer: 150 % of control

Question: What about the T/C (dose: 3.13 mg/kg/injection, schedule: Q01DX009 (ip), vehicle: water) of the same molecule?
Answer: 161 % of control and 196 % of control

Question: And the T/C (dose: 3.13 mg/kg/injection, schedule: Q04DX003 (ip), vehicle: water)?
Answer: 112 % of control

Question: And the T/C (dose: 6.25 mg/kg/injection, schedule: Q01DX009 (ip), vehicle: water)?
Answer: 113 % of control and 116 % of control

Question: And the T/C (dose: 6.25 mg/kg/injection, schedule: Q04DX003 (ip), vehicle: water)?
Answer: 103 % of control

Question: And the T/C (dose: 12.5 mg/kg/injection, schedule: Q01DX009 (ip), vehicle: water)?
Answer: 114 % of control and 86 % of control

Question: And the T/C (dose: 12.5 mg/kg/injection, schedule: Q04DX003 (ip), vehicle: water)?
Answer: 103 % of control

Question: What about the T/C (dose: 25.0 mg/kg/injection, schedule: Q04DX003 (ip), vehicle: water) of the same molecule?
Answer: 121 % of control

Question: And the T/C (dose: 50.0 mg/kg/injection, schedule: Q04DX003 (ip), vehicle: water)?
Answer: 112 % of control

Question: Which T/C (dose: 60.0 mg/kg/injection, schedule: Q01DX005 (ip), vehicle: saline) does the source give for `C#CCCCOCOCCOC` here?
Answer: 101 % of control

Question: And the T/C (dose: 120.0 mg/kg/injection, schedule: Q01DX005 (ip), vehicle: saline)?
Answer: 101 % of control

Question: Which T/C [8] does the source give for `CCC1(CC(=O)O)OCCc2c1[nH]c1c(C)c(F)ccc21` (stereo not drawn) here?
Answer: 95 % of control

Question: And the T/C [9]?
Answer: 96 % of control

Question: And the T/C [10]?
Answer: 104 % of control

Question: Which T/C (dose: 100.0 mg/kg/injection, schedule: Q04DX002 (ip), vehicle: saline with Tween-80) does the source give for `COc1ccc(C(=NCCc2ccccc2)c2ccccc2)c(O)c1` here?
Answer: 100 % of control

Question: What about the T/C (dose: 200.0 mg/kg/injection, schedule: Q04DX002 (ip), vehicle: saline with Tween-80) of the same molecule?
Answer: 98 % of control

Question: And the T/C (dose: 400.0 mg/kg/injection, schedule: Q04DX002 (ip), vehicle: saline with Tween-80)?
Answer: 100 % of control

Question: How did the T/C [7] turn out when `CCOC(=O)C1(CC(C)C)CCOC1=O` (stereo not drawn) was run?
Answer: 99 % of control

Question: And the T/C [12]?
Answer: 96 % of control

Question: What about the T/C [13] of the same molecule?
Answer: 97 % of control

Question: Which T/C [8] does the source give for `C#CC(CC)(CC)N1CC(OC(=O)NCC=C)C1` here?
Answer: 100 % of control

Question: And the T/C [9]?
Answer: 97 % of control

Question: What about the T/C [10] of the same molecule?
Answer: 95 % of control

Question: Which results are given for `COC(=O)C1C2CC3c4[nH]c5c([N+](=O)[O-])c(OC)ccc5c4CCN3CC2CC(OC(=O)c2cc(OC)c(OC)c(OC)c2)C1OC` (stereo not drawn)?
Answer: T/C (dose: 9.38 mg/kg/injection, schedule: Q01DX005 (ip), vehicle: Klucel (hydroxypropylcellulose) (HPC)): 98 % of control; T/C (dose: 18.75 mg/kg/injection, schedule: Q01DX005 (ip), vehicle: Klucel (hydroxypropylcellulose) (HPC)): 95 % of control; T/C (dose: 37.5 mg/kg/injection, schedule: Q01DX005 (ip), vehicle: Klucel (hydroxypropylcellulose) (HPC)): 96 % of control; T/C (dose: 75.0 mg/kg/injection, schedule: Q01DX005 (ip), vehicle: Klucel (hydroxypropylcellulose) (HPC)): 86 % of control

Question: How did the T/C (dose: 6.25 mg/kg/injection, schedule: Q01DX009 (ip), vehicle: saline with Tween-80) turn out when `Cc1ccccc1-c1cc2ccccc2c(N)n1` was run?
Answer: 118 % of control

Question: What about the T/C (dose: 12.5 mg/kg/injection, schedule: Q01DX009 (ip), vehicle: saline with Tween-80) of the same molecule?
Answer: 99 % of control

Question: What does the source list for `CC1(C)OC2COC3OC(C)(C)OC3(/C=N\NC(=O)c3cc4ccccc4[nH]3)C2O1` (stereo not drawn)?
Answer: T/C [7]: 98 % of control; T/C [12]: 104 % of control; T/C [13]: 102 % of control
